Test results reported in patent US5591615A, “Mutant of Geotrichum candidum which produces novel enzyme system to selectively hydrolyze triglycerides” (priority 1995, dated 1997).

How the values were obtained:
[1] = test system: Geotrichum candidum mutant 9-2; experiment: UNLipase production by mutant in culture medium; assay type: cell-based
Method: It was determined early in our work that having fat or oil in the medium induced other lipases produced by Geotrichum strains. Thus fat or oil was eliminated from the medium. Then improvements for Bacto-Peptone were sought. A series of peptones or other organic nitrogen sources were tested including soy peptone, trypticase® (BBL) peptone, casamino acids, NZ amine® (Sheffield Products) and casein.
Next, the salt constituents were examined in the standard medium. […] The inclusion of these two salts in the medium gave a doubling of measured hydrolyric activity when assayed using the standard assay. […] Fifty mls of this medium are placed in 500 ml baffled flasks (Bellco) then shaken at 250 rpms at 25°-30° C.
The next goal was to find a mutant with enhanced productivity. Thus the mutagenesis of mutant 9-2 was undertaken as described above but the selection protocol was altered. In this case, after the 8° C. recovery period the mutant suspensions were placed in 50 ml sterile test tubes and frozen at -55° C. The period of freezing was then interrupted by thawing periods (about 4 hours) and followed by freezing at -55° C. Mutants were screened for lipase activity and selectivity. One mutant, 9-2-3-9, survived a cycle of 3 weeks of freezing which had been interrupted by 3 thaw cycles. The mutant 9-2-3-9 was distinctly different from its parent (9-2) in its colony morphology when grown on nutrient agar. The colony type was much more aerial than 9-2.
The mutant 9-2 was grown in the medium described above. Fifty mls were added to 500 ml baffled flasks (Bellco) and placed on a shaker maintained at 30° C. and shaken at 250 rpms. Production reaches a peak at about 30 hours, then declines slightly and remains low. The enzyme was harvested at 30 hours for a series of hydrolyric tests. The collection of the enzyme involves centrifugation of the broth at 5000 rpms in the Beckman GSA rotor for 10 minutes. The cell free broth was then decanted from the cell pellet. In some cases, high activity suspension were produced by a 70% ammonium sulfate precipitation of the broth.

UNLipase [2] = experiment: Esterification of fatty acid mixture from pressure-split beef tallow (PFA); assay type: biochemical, Geotrichum candidum; conditions: HPLC or GC; pentadecanoic acid internal standard
Method: The esterification of fatty acid mixtures was evaluated using typical fatty acid mixtures derived from pressure-split beef tallow, henceforth referred to as PFA. Samples of PFA were spiked with pentadecanoic acid as an internal standard. The resulting products were analyses by either HPLC (reverse phase C-18 column) or GC (FFAP capillary column).

UNLipase [3] = experiment: Fatty acid selectivity of lipase esterification; assay type: biochemical, Geotrichum candidum
Method: These preparations contained 50-200 mg of fatty acid, 0.5 ml concentrated broth, 0.5 ml water (buffer) and 100-300 ul of alcohol. Reactions were run at either 27, 30 or 37 degrees Celsius for 16 to 24 hours. The reaction was stopped by adding 2.0 ml ether.
Fatty acid and ester were extracted into ether and evaluated by thin layer chromatography. The esterification of oleic acid with various alcohols is present in Table 1.
The fatty acid selectivity of the lipase in esterification reactions was also evaluated in the manner described above, with results analyzed by thin layer chromatography, GC, HPLC and IR.

UNLipase [4] = experiment: Effect of metal ions on UNLipase; assay type: biochemical, Geotrichum candidum; conditions: 25 mM concentration
UNLipase [5] = experiment: Hydrolysis of simple (methyl) esters with UNLipase; assay type: biochemical, Geotrichum candidum; conditions: about 50 mM in isooctane, 37 degrees C, 4 hours
Excerpt: Simple esters were subjected to UNLipase to determine the scope and extent of UNLipase selectivity. The esters evaluated were methyl esters of propionic, caprylic, nonanoic, caproic, palmitic and oleic acids. […] Approximately 2% of the methyl palmitate reacted, whereas 67% of the methyl oleate was hydrolyzed.

G. candidum lipase = conditions: cited from earlier work
UNLipase [6] = experiment: Hydrolysis of pure triglycerides with UNLipase; assay type: biochemical, Geotrichum candidum; conditions: 1 hour at 37 degrees C; for ratio of hydrolysis for triolein:tripalmitolein:trilinolein: pure triglyceride in isooctane, relative to triolein 100
Method: The Enzyme was harvested using centrifugation at 5000 rpms, for example, in a Beckman GSA rotor for 10 minutes. This cell-free preparation was used to determine hydrolysis, esterification and transesterification properties.
Substrates were prepared in isooctane (2,2,4-trimethylpentane) at about 0.8 grams per 20 ml solvent. Assay procedures for determining lipase activity were those described by Kwon, D. Y. and Rhee, J. S., J. Amer. Oil Chem Soc. 63:89-92(1986). One modification was to perform some assays for one hour under nonagitated conditions to avoid difficulties in reproducing agitation rates.
Hydrolysis was greatest for triolein, with the ratio of hydrolysis for triolein: tripalmitolein:trilinolein of 100:65:82. […] The ratio of hydrolysis of triolein to tripalmitin was approximately 33:1.

[7] = added to culture medium of mutant 9-2

OC[C@H]1O[C@H](O[C@H]2[C@H](O)[C@@H](O)C(O)O[C@@H]2CO)[C@H](O)[C@@H](O)[C@@H]1O (mixture of isomers) [maltose]
effect on UNLipase production [1, 7]: no effect

O=P([O-])(O)O.[K+] [KH2 PO4]
effect on UNLipase production [1, 7]: benefit

CCCCC/C=C\C/C=C\CCCCCCCC(=O)O [Linoleic]
ester formation in PFA mixture (UNLipase [2]): detected

O=S(=O)([O-])[O-].[Mg+2] [MgSO4]
effect on UNLipase production ([1]; MgSO4 concentration increased to 0.5%): no further enhancement | effect on UNLipase production [1, 7]: benefit

CCCCCCCC/C=C\CCCCCCCC(=O)O [Oleic, oleic acid]
ester formation in PFA mixture (UNLipase [2]): detected

CCCCCC/C=C\CCCCCCCC(=O)O [Palmitoleic]
ester formation in PFA mixture (UNLipase [2]): detected

CCCCCCCCCCCCCCCCCC(=O)O [Stearic]
ester formation in PFA mixture (UNLipase [2]): not esterified

C=CCCCCCCCCC(=O)O [Undecenoic acid, 10-undecenoic acid]
effect on esterification of oleic acid (UNLipase [3]): inhibitor

[Ca+2] [calcium ions]
effect on UNLipase production [1, 7]: did not enhance | effect on UNLipase (UNLipase [4]): inhibited

O=C(CO)[C@@H](O)[C@H](O)[C@H](O)CO [fructose]
effect on UNLipase production [1, 7]: inhibited

O=C[C@H](O)[C@@H](O)[C@H](O)[C@H](O)CO [glucose]
effect on UNLipase production [1, 7]: inhibited

[Mg+2] [magnesium ions]
effect on UNLipase (UNLipase [4]): activated

OC[C@@H](O)[C@@H](O)[C@H](O)[C@H](O)CO [mannitol]
effect on UNLipase production [1, 7]: no effect

CCCCCCCC(=O)OC [methyl ester of caprylic acid]
hydrolysis by UNLipase (UNLipase [5]): not hydrolyzed

CCCCCCCCC(=O)OC [methyl ester of nonanoic acid]
hydrolysis by UNLipase (UNLipase [5]): not hydrolyzed

CCC(=O)OC [methyl ester of propionic acid]
hydrolysis by UNLipase (UNLipase [5]): not hydrolyzed

CCCCCCCC/C=C\CCCCCCCC(=O)OC [methyl oleate]
methyl ester hydrolyzed (UNLipase [5]): 67% | hydrolytic rate relative to palmitic methyl ester (G. candidum lipase): 10 times

CCCCCCCCCCCCCCCC(=O)OC [methyl palmitate]
methyl ester hydrolyzed (UNLipase [5]): Approximately 2%

CCCCCCCCCCCCCC(=O)O [myristic]
ester formation in PFA mixture (UNLipase [2]): not esterified

CCCCCCCCCCCCCCCC(=O)O [palmitic]
ester formation in PFA mixture (UNLipase [2]): not esterified

CCCCCCCCCCCCCCC(=O)O [pentadecanoic acid]
ester formation in PFA mixture (UNLipase [2]): not esterified

OC[C@H]1O[C@@](CO)(O[C@H]2O[C@H](CO)[C@@H](O)[C@H](O)[C@H]2O)[C@@H](O)[C@@H]1O [sucrose]
effect on UNLipase production [1, 7]: inhibited

CCCCC/C=C\C/C=C\CCCCCCCC(=O)OCC(COC(=O)CCCCCCC/C=C\C/C=C\CCCCC)OC(=O)CCCCCCC/C=C\C/C=C\CCCCC [trilinolein]
ratio of hydrolysis for triolein:tripalmitolein:trilinolein (UNLipase [6]): 82

CCCCCCCC/C=C\CCCCCCCC(=O)OCC(COC(=O)CCCCCCC/C=C\CCCCCCCC)OC(=O)CCCCCCC/C=C\CCCCCCCC [triolein]
ratio of hydrolysis for triolein:tripalmitolein:trilinolein (UNLipase [6]): 100

CCCCCCCCCCCCCCCC(=O)OCC(COC(=O)CCCCCCCCCCCCCCC)OC(=O)CCCCCCCCCCCCCCC [tripalmitin]
reactivity with UNLipase (UNLipase [6]; saturated fatty acid triglycerides): showed any reactivity

CCCCCC/C=C\CCCCCCCC(=O)OCC(COC(=O)CCCCCCC/C=C\CCCCCC)OC(=O)CCCCCCC/C=C\CCCCCC [tripalmitolein]
ratio of hydrolysis for triolein:tripalmitolein:trilinolein (UNLipase [6]): 65
